In ChEMBL document CHEMBL3885861, “Open TG-GATES”:

Organism: Rattus norvegicus
Test: Open TG-GATES - Regimen: Daily Repeat
Assay type: toxicity, organism-based, Sprague-Dawley
Design: regimen Daily Repeat, gender Male, age 6 weeks
Conditions: in vivo, po, route gavage; for APTT / Bas / Eos / Fbg / Hb / Ht / Lym / MCH / MCHC / MCV / Mono / Neu / RBC / Ret / WBC / Plat / PT: tissue Blood; for KIDNEY_L / KIDNEY_R / KIDNEY_TOTAL: tissue Kidney; for ALP / ALT / AST / BUN / CRE / Ca / Cl / DBIL / GLC / IP / K / LDH / Na / PL / RALB / TBIL / TC / TG / TP / gamma-GTP: tissue Plasma
[1] = 150 mg/kg, 72 h, dose level Middle, time 3 day
[2] = 150 mg/kg, […], dose level Middle, time 7 day
[3] = 150 mg/kg, […], dose level Middle, time 14 day
[4] = 150 mg/kg, […], dose level Middle, time 28 day
[5] = 450 mg/kg, 72 h, dose level High, time 3 day
[6] = 450 mg/kg, […], dose level High, time 7 day
[7] = 450 mg/kg, […], dose level High, time 14 day
[8] = 450 mg/kg, […], dose level High, time 28 day

## CC(=O)Oc1ccccc1C(=O)O [ASPIRIN]
[1]
  APTT: 19 s
  Bas: 0%
  Eos: 1%
  Fbg: 227.8 mg/dL
  Hb: 13.4 g/dL
  Ht: 39.3%
  Lym: 80.8%
  MCH: 21.4 pg
  MCHC: 34.1%
  MCV: 62.7 fL
  Mono: 2.8%
  Neu: 14.4%
  RBC: 627.2 x10_4/ul
  Ret: 5.9%
  WBC: 108.2 x10_2/uL
  KIDNEY_L: 1.1 g
  KIDNEY_R: 1.1 g
  KIDNEY_TOTAL: 2.1 g
  ALP: 924.6 IU/L
  ALT: 33.4 IU/L
  AST: 68.4 IU/L
  BUN: 12.2 mg/dL
  CRE: 0.4 mg/dL
  Ca: 10.6 mg/dL
  Cl: 102.4 meq/L
  DBIL: 0.078 mg/dL
  GLC: 196.6 mg/dL
  IP: 7 mg/dL
  K: 3.7 meq/L
  LDH: 210.2 IU/L
  Na: 141 meq/L
  PL: 155.8 mg/dL
  RALB: 3.4 g/dL
  TBIL: 0.1 mg/dL
  TC: 73.8 mg/dL
  TG: 117.6 mg/dL
  TP: 5.6 g/dL
  gamma-GTP: 1 IU/L
[2]
  TERMINAL_BW: 268.1 g
  APTT: 19.3 s
  Bas: 0%
  Eos: 1%
  Fbg: 216 mg/dL
  Hb: 14 g/dL
  Ht: 41.1%
  Lym: 82.4%
  MCH: 20.8 pg
  MCHC: 34%
  MCV: 61.3 fL
  Mono: 2.4%
  Neu: 13.2%
  Plat: 119 x10_4/uL
  RBC: 671 x10_4/ul
  Ret: 4.7%
  WBC: 119.6 x10_2/uL
  KIDNEY_L: 1.2 g
  KIDNEY_R: 1.2 g
  KIDNEY_TOTAL: 2.3 g
  ALP: 901.8 IU/L
  ALT: 35 IU/L
  AST: 66.8 IU/L
  BUN: 16 mg/dL
  CRE: 0.4 mg/dL
  Ca: 10.4 mg/dL
  Cl: 102.4 meq/L
  DBIL: 0.094 mg/dL
  GLC: 211.6 mg/dL
  IP: 8.5 mg/dL
  K: 4 meq/L
  LDH: 222.2 IU/L
  Na: 141 meq/L
  PL: 158.4 mg/dL
  RALB: 3.2 g/dL
  TBIL: 0.1 mg/dL
  TC: 71.8 mg/dL
  TG: 153.4 mg/dL
  TP: 5.4 g/dL
  gamma-GTP: 0.6 IU/L
[3]
  TERMINAL_BW: 320.9 g
  APTT: 19.5 s
  Bas: 0%
  Eos: 1.8%
  Fbg: 204.8 mg/dL
  Hb: 14.9 g/dL
  Ht: 42.1%
  Lym: 77.6%
  MCH: 21.1 pg
  MCHC: 35.3%
  MCV: 59.7 fL
  Mono: 2.8%
  Neu: 17.2%
  Plat: 125.3 x10_4/uL
  RBC: 704.8 x10_4/ul
  Ret: 3.5%
  WBC: 156.5 x10_2/uL
  KIDNEY_L: 1.3 g
  KIDNEY_R: 1.3 g
  KIDNEY_TOTAL: 2.6 g
  ALP: 825.8 IU/L
  ALT: 36.8 IU/L
  AST: 77 IU/L
  BUN: 14.6 mg/dL
  CRE: 0.4 mg/dL
  Ca: 10.4 mg/dL
  Cl: 102.2 meq/L
  DBIL: 0.092 mg/dL
  GLC: 187.4 mg/dL
  IP: 8 mg/dL
  K: 4.2 meq/L
  LDH: 252 IU/L
  Na: 141.6 meq/L
  PL: 158.6 mg/dL
  RALB: 3.3 g/dL
  TBIL: 0.1 mg/dL
  TC: 72.4 mg/dL
  TG: 151.4 mg/dL
  TP: 5.5 g/dL
  gamma-GTP: 0.8 IU/L
[4]
  TERMINAL_BW: 404.7 g
  APTT: 21.3 s
  Bas: 0%
  Eos: 1.4%
  Fbg: 205.4 mg/dL
  Hb: 15.4 g/dL
  Ht: 44.6%
  Lym: 80.2%
  MCH: 19.6 pg
  MCHC: 34.6%
  MCV: 56.7 fL
  Mono: 2.4%
  Neu: 14.6%
  Plat: 108.6 x10_4/uL
  RBC: 789.2 x10_4/ul
  Ret: 2.2%
  WBC: 108.6 x10_2/uL
  KIDNEY_L: 1.5 g
  KIDNEY_R: 1.5 g
  KIDNEY_TOTAL: 3 g
  ALP: 641.6 IU/L
  ALT: 35.8 IU/L
  AST: 81.4 IU/L
  BUN: 16.2 mg/dL
  CRE: 0.5 mg/dL
  Ca: 10.2 mg/dL
  Cl: 102.8 meq/L
  DBIL: 0.1 mg/dL
  GLC: 229.2 mg/dL
  IP: 7.3 mg/dL
  K: 3.8 meq/L
  LDH: 193 IU/L
  Na: 142.2 meq/L
  PL: 149.8 mg/dL
  RALB: 3.4 g/dL
  TBIL: 0.2 mg/dL
  TC: 69.4 mg/dL
  TG: 148.8 mg/dL
  TP: 5.8 g/dL
  gamma-GTP: 0.6 IU/L
[5]
  TERMINAL_BW: 232.1 g
  APTT: 24.9 s
  Bas: 0%
  Eos: 0.4%
  Fbg: 212.4 mg/dL
  Hb: 13.5 g/dL
  Ht: 39.3%
  Lym: 81.4%
  MCH: 21.4 pg
  MCHC: 34.2%
  MCV: 62.5 fL
  Mono: 2%
  Neu: 14.8%
  PT: 14.1 s
  Plat: 122.2 x10_4/uL
  RBC: 630 x10_4/ul
  Ret: 4.7%
  WBC: 126.2 x10_2/uL
  KIDNEY_L: 1.1 g
  KIDNEY_R: 1.1 g
  KIDNEY_TOTAL: 2.2 g
  ALP: 880.2 IU/L
  ALT: 47 IU/L
  AST: 82.4 IU/L
  BUN: 14.8 mg/dL
  CRE: 0.4 mg/dL
  Ca: 11.2 mg/dL
  Cl: 103 meq/L
  DBIL: 0.1 mg/dL
  GLC: 188 mg/dL
  IP: 7.1 mg/dL
  K: 3.7 meq/L
  LDH: 233.4 IU/L
  Na: 142.2 meq/L
  PL: 147.2 mg/dL
  RALB: 3.3 g/dL
  TBIL: 0.2 mg/dL
  TC: 62.2 mg/dL
  TG: 187 mg/dL
  TP: 5.5 g/dL
  gamma-GTP: 1.4 IU/L
[6]
  TERMINAL_BW: 257.1 g
  APTT: 22.6 s
  Bas: 0%
  Eos: 0.8%
  Fbg: 210.2 mg/dL
  Hb: 13.3 g/dL
  Ht: 39.6%
  Lym: 81.6%
  MCH: 21.2 pg
  MCHC: 33.7%
  MCV: 63 fL
  Mono: 2.2%
  Neu: 14%
  PT: 13.6 s
  Plat: 111.3 x10_4/uL
  RBC: 629.4 x10_4/ul
  Ret: 7.9%
  WBC: 159.1 x10_2/uL
  KIDNEY_L: 1.1 g
  KIDNEY_R: 1.1 g
  KIDNEY_TOTAL: 2.3 g
  ALP: 1005.2 IU/L
  ALT: 51.6 IU/L
  AST: 102.4 IU/L
  BUN: 16.8 mg/dL
  CRE: 0.5 mg/dL
  Ca: 11 mg/dL
  Cl: 102.4 meq/L
  DBIL: 0.1 mg/dL
  GLC: 207.4 mg/dL
  IP: 7.4 mg/dL
  K: 4.1 meq/L
  LDH: 248.2 IU/L
  Na: 142 meq/L
  PL: 158.6 mg/dL
  RALB: 3.4 g/dL
  TBIL: 0.2 mg/dL
  TC: 66.8 mg/dL
  TG: 182.4 mg/dL
  TP: 5.3 g/dL
  gamma-GTP: 1.2 IU/L
[7]
  TERMINAL_BW: 301.6 g
  APTT: 22.1 s
  Bas: 0%
  Eos: 1%
  Fbg: 210 mg/dL
  Hb: 14.5 g/dL
  Ht: 41.5%
  Lym: 78.6%
  MCH: 21.3 pg
  MCHC: 34.9%
  MCV: 61.1 fL
  Mono: 2.6%
  Neu: 16.4%
  PT: 13 s
  Plat: 125.9 x10_4/uL
  RBC: 679.8 x10_4/ul
  Ret: 4.7%
  WBC: 146.8 x10_2/uL
  KIDNEY_L: 1.3 g
  KIDNEY_R: 1.3 g
  KIDNEY_TOTAL: 2.5 g
  ALP: 871 IU/L
  ALT: 46.2 IU/L
  AST: 92.8 IU/L
  BUN: 16.4 mg/dL
  CRE: 0.5 mg/dL
  Ca: 10.8 mg/dL
  Cl: 101.4 meq/L
  DBIL: 0.1 mg/dL
  GLC: 175.8 mg/dL
  IP: 7.6 mg/dL
  K: 4.4 meq/L
  LDH: 312 IU/L
  Na: 141.2 meq/L
  PL: 170.6 mg/dL
  RALB: 3.3 g/dL
  TBIL: 0.2 mg/dL
  TC: 65.6 mg/dL
  TG: 250.6 mg/dL
  TP: 5.4 g/dL
  gamma-GTP: 0.8 IU/L
[8]
  TERMINAL_BW: 356.2 g
  APTT: 23.9 s
  Bas: 0%
  Eos: 1%
  Fbg: 194.2 mg/dL
  Hb: 14.9 g/dL
  Ht: 43.2%
  Lym: 76.6%
  MCH: 20.1 pg
  MCHC: 34.5%
  MCV: 58.2 fL
  Mono: 2.6%
  Neu: 18.8%
  PT: 14 s
  Plat: 90.2 x10_4/uL
  RBC: 746.6 x10_4/ul
  Ret: 3.3%
  WBC: 115.2 x10_2/uL
  KIDNEY_L: 1.3 g
  KIDNEY_R: 1.4 g
  KIDNEY_TOTAL: 2.7 g
  ALP: 771.8 IU/L
  ALT: 40.6 IU/L
  AST: 85.6 IU/L
  BUN: 18.4 mg/dL
  CRE: 0.5 mg/dL
  Ca: 10.3 mg/dL
  Cl: 102.6 meq/L
  DBIL: 0.094 mg/dL
  GLC: 204.4 mg/dL
  IP: 6.5 mg/dL
  K: 4 meq/L
  LDH: 179 IU/L
  Na: 141.8 meq/L
  PL: 146.6 mg/dL
  RALB: 3.4 g/dL
  TBIL: 0.2 mg/dL
  TC: 58.2 mg/dL
  TG: 172.4 mg/dL
  TP: 5.2 g/dL
  gamma-GTP: 1 IU/L
